{"source": "patent US10786690B2", "about": "“Amide derivatives of polycaffeoylquinic acids, process for producing same and uses thereof” (TEMISIS, priority 2016, dated 2020)", "key": {"IL-6": {"test_system": "IL-6", "test": "IL-6 production by NHEKs in the inflammatory state (PMA + calcium ionophore, 0.8 mM Ca2+), ELISA", "format": "cell-based, human", "conditions": "PMA + calcium ionophore A23187, 0.8 mM Ca2+, compounds 50 μM, dexamethasone 10 μM, relative to induced control", "procedure": "The study was carried out on Normal Human Epidermal Keratinocytes (NHEKs) (Lonza, CC-2507, origin: foreskin) in monolayer culture in Epilife medium (Invitrogen, M-EPI-500-A) containing the components of the Human Keratinocyte Growth Supplement (HKGS) mixture (Invitrogen, S-001-K) added separately, except hydrocortisone having anti-inflammatory properties.\nFor the quantification of IL-8 and PGE2, the inflammatory state of the NHEKs in culture was induced by treatment with PMA (phorbol myristate acetate/10 ng/ml/H2O) for 24 h. […]\nQuantification of the various inflammatory mediators was carried out with specific kits, based on a standard curve, according to the instructions provided by the kits' suppliers, R&D Systems and Cayman Chemical.\nBefore induction of the inflammatory state, the NHEKs were treated with the compounds and reference molecules for 2 h. The inflammatory state was then induced according to the conditions described in the methodology section, the culture supernatants were collected, and the various inflammatory mediators were quantified by the ELISA technique.\nThe effect of the compounds on IL-6 production by NHEKs in the inflammatory state is shown in FIG. 6 and is expressed as a percentage of the treatment with PMA combined with calcium ionophore A23187 (under high-calcium conditions: 0.8 mM Ca2+)."}, "[1]": {"test_system": "Normal Human Dermal Fibroblasts (NHDFs)", "test": "qRT-PCR gene expression in Normal Human Dermal Fibroblasts", "format": "cell-based", "conditions": "4 μM, 24 h", "procedure": "The study consisted in measuring the effects of compound PAT1657 by qRT-PCR on the expression of 94 genes involved in dermal biology, connective tissue remodelling and ageing.\nThe protocol consisted in applying compound PAT1657 for 24 h in the culture medium of Normal Human Dermal Fibroblasts (NHDFs) in monolayer and analysing the various RNA populations to identify the genes differentially expressed by real-time qRT-PCR.\nThe study was carried out on Normal Human Dermal Fibroblasts (NHDFs) (ATCC, CRL-2522, origin: foreskin) at about 40% of their proliferative potential and grown in monolayer in DMEM medium (Invitrogen, 31885-049) containing antibiotics (penicillin/streptomycin, Invitrogen, 15140-122) but not containing serum. The cells were maintained in a humid atmosphere at 37° C. containing 5% CO2.\nCompound PAT1657 was applied in the NHDF culture medium for 24 h (n=3). Controls treated with the solvent DMSO (1% for the NHDFs) in which the active agents were prepared were also analysed. At the end of the treatments, total RNA populations were extracted, their integrity was analysed by capillary electrophoresis, and gene expression differences were analysed by qRT-PCR using 96-well TaqMan microfluidic cards (custom produced by Applied Biosystems), targeting key functions of the dermis and epidermis. The technical details of the implementation of the present paragraph are explained in the “Materials and methods” section of Example 1 of patent application FR1650745 and more specifically the sub-section titled “Analysis of gene expression changes” (page 26 line 22 to page 28 line 9).\nThe gene expression changes induced by the active agents are expressed as relative quantity (RQ) based on the respective DMSO solvent controls."}}, "note": "Several values for one entry are separate records, joined by “and”; a condition that tells them apart may be missing. Equal entries are not always repeated."}
{"smiles": "CCCCCCCCNC(=O)[C@]1(O)C[C@@H](OC(=O)/C=C/c2ccc(O)c(O)c2)[C@@H](O)[C@H](OC(=O)/C=C/c2ccc(O)c(O)c2)C1", "note": "[PAT1657, (2E,2′E)-((1R,2S,3R,5S)-2,5-dihydroxy-5-(octylcarbamoyl)cyclohexane-1,3-diyl) bis(3-(3,4-dihydroxyphenyl)acrylate)]", "values": [{"measurement": "IL-6 production", "setting": "IL-6", "value": "largest decreases and are more effective than dexamethasone itself"}, {"measurement": "expression of gene GSS", "setting": "[1]; in words only", "value": "overexpressed"}, {"measurement": "RQ (relative expression), gene CCL5", "setting": "[1]; relative to 1% DMSO vehicle", "value": 28.13}, {"measurement": "RQ (relative expression), gene DDIT3", "setting": "[1]; relative to 1% DMSO vehicle", "value": 2.81}, {"measurement": "RQ (relative expression), gene FTL", "setting": "[1]; relative to 1% DMSO vehicle", "value": "2.1 and 2.08"}, {"measurement": "RQ (relative expression), gene GADD45A", "setting": "[1]; relative to 1% DMSO vehicle", "value": 3.68}, {"measurement": "RQ (relative expression), gene KLF4", "setting": "[1]; relative to 1% DMSO vehicle", "value": "1.9 and 1.93"}, {"measurement": "RQ (relative expression), gene MMP1", "setting": "[1]; relative to 1% DMSO vehicle", "value": "6.9 and 6.91"}, {"measurement": "RQ (relative expression), gene MMP3", "setting": "[1]; relative to 1% DMSO vehicle", "value": "3.1 and 3.12"}, {"measurement": "RQ (relative expression), gene MTNR1A", "setting": "[1]; relative to 1% DMSO vehicle", "value": 1.46}, {"measurement": "RQ (relative expression), gene NANOG", "setting": "[1]; relative to 1% DMSO vehicle", "value": "4.7 and 4.67"}, {"measurement": "RQ (relative expression), gene NOX1", "setting": "[1]; relative to 1% DMSO vehicle", "value": 1.46}, {"measurement": "RQ (relative expression), gene POU5F1", "setting": "[1]; relative to 1% DMSO vehicle", "value": 5.1}, {"measurement": "RQ (relative expression), gene RBP2", "setting": "[1]; relative to 1% DMSO vehicle", "value": 1.46}, {"measurement": "RQ (relative expression), gene RORA", "setting": "[1]; relative to 1% DMSO vehicle", "value": "4.4 and 4.41"}, {"measurement": "RQ (relative expression), gene SIRT1", "setting": "[1]; relative to 1% DMSO vehicle", "value": 2.02}, {"measurement": "RQ (relative expression), gene SOD2", "setting": "[1]; relative to 1% DMSO vehicle", "value": "4.7 and 4.66"}, {"measurement": "RQ (relative expression), gene TXNRD1", "setting": "[1]; relative to 1% DMSO vehicle", "value": "2.8 and 2.82"}, {"measurement": "RQ (relative expression), gene VEGFA", "setting": "[1]; relative to 1% DMSO vehicle", "value": "8.3 and 8.28"}]}
